From ChEMBL document CHEMBL6096731, “Structure-Guided Optimization and Preclinical Evaluation of 6-O-Benzylguanine-Based Pin1 Inhibitor for Hepatocellular Carcinoma Treatment” (J Med Chem, 2025)
Active and inactive are the calls of the source. The rule behind the calls is not given here.

Legend:
[1] = biological target: Peptidyl-prolyl cis-trans isomerase NIMA-interacting 1 (Homo sapiens, UniProt Q13526); test: Inhibition of full length pin1 (unknown origin) expressed in Escherichia coli
[2] = Antiproliferative activity against human HCC cells assessed as cell viability incubated for 72 hrs by alamar blue dye based assay; type: toxicity; conditions: for IC50 at 72 h: HCC cells
[3] = system: SK-HEP1; test: Antiproliferative activity human SK-HEP1 cells assessed as cell viability measured at 120 hrs; type: functional, cell-based
[4] = system: SK-HEP1; test: Antiproliferative activity human SK-HEP1 cells assessed as cell viability measured up to 120 hrs; type: functional, cell-based
[5] = system: SK-HEP1; test: Inhibition of cell migration in human SK-HEP1 cells at 5 uM incubated for 24 hrs by crystal violet staining based microscopic analysis; type: functional
[6] = system: SK-HEP1; test: Antiproliferative activity human SK-HEP1 cells assessed as cell viability measured at 96 hrs; type: functional, cell-based
[7] = system: SK-HEP1; test: Inhibition of colony formation human SK-HEP1 cells at 2.5 uM incubated for 5 days by crystal violet staining based analysis; type: functional, cell-based; conditions: time 5.0 day

Chain of Peptidyl-prolyl cis-trans isomerase NIMA-interacting 1 (Q13526 whole entry): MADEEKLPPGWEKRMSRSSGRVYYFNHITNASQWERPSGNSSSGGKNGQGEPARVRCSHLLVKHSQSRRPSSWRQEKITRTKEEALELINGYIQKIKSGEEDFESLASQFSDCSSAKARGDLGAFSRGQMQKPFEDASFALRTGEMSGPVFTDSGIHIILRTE

Row | Compound | IC50 [1] | IC50 at 72 h [2] | also measured
1 | CCOC(=O)Cn1cnc2c(OCc3cccc(F)c3)nc(N)nc21 | 8.03 µM | > 50 µM | –
2 | COc1cccc(Oc2nc(N)nc3[nH]cnc23)c1 | 28.2 µM | > 50 µM | –
3 | Nc1nc(OCc2ccccc2-c2ccccc2)c2nc[nH]c2n1 | 8.03 µM | 28.9 µM | –
4 | Nc1nc(OCc2ccccc2)c2[nH]cnc2n1 [6-O-BENZYLGUANINE] | 0.0914 µM | 8.5 µM | –
5 | COc1cccc(COc2nc(N)nc3[nH]cnc23)c1 | 13.5 µM | 6.6 µM | –
6 | COc1cccc(COc2nc(N)nc3c2ncn3Cc2ccccc2)c1 | 1.46 µM | > 50 µM | –
7 | Nc1nc(OCc2cc(OCc3ccccc3)cc(OCc3ccccc3)c2)c2nc[nH]c2n1 | 11.1 µM | 38.5 µM | –
8 | Cc1ccc(COc2nc(N)nc3nc[nH]c23)cc1 | 0.293 µM | 6.1 µM | –
9 | CSc1ccc(COc2nc(N)nc3[nH]cnc23)cc1 | 0.829 µM | 6.9 µM | –
10 | COCOc1ccc(COc2nc(N)nc3[nH]cnc23)cc1OC | 0.519 µM | > 50 µM | –
11 | CCOC(=O)Cn1cnc2c(OCc3cccc(Oc4ccccc4)c3)nc(N)nc21 | > 50 µM | > 50 µM | –
12 | Nc1nc(OCc2cc(F)ccc2F)c2nc[nH]c2n1 | 0.36 µM | 16.6 µM | –
13 | CCCCOc1nc(N)nc2[nH]cnc12 | 18.3 µM | > 50 µM | –
14 | Cc1cccc(COc2nc(N)nc3nc[nH]c23)c1 | 0.208 µM | 5.5 µM | –
15 | Nc1nc(OCc2cccs2)c2nc[nH]c2n1 | 7.15 µM | 42.2 µM | –
16 | Nc1nc(OCc2cc(F)ccc2Br)c2nc[nH]c2n1 | 1.65 µM | 22.2 µM | –
17 | Nc1nc(OCc2cccc(C(F)(F)F)c2)c2nc[nH]c2n1 | 0.634 µM | 16 µM | –
18 | Nc1nc(OCc2cccc3ccccc23)c2nc[nH]c2n1 | 5.79 µM | 33 µM | –
19 | COc1ccc(COc2nc(N)nc3[nH]cnc23)cc1 | 5.39 µM | 4.2 µM | –
20 | Nc1nc(OCc2cccc(Oc3ccccc3)c2)c2nc[nH]c2n1 | > 50 µM | 34.3 µM | –

Row | Compound | IC50 [1] | IC50 at 72 h [2] | also measured
21 | COc1cc(COc2nc(N)nc3[nH]cnc23)cc(OC)c1OC | 7.85 µM | > 50 µM | –
22 | Nc1nc(OCc2ccc(CNC(=O)C(F)(F)F)cc2)c2nc[nH]c2n1 | 0.148 µM | – | Activity [3]: Active; Activity [4]: Active; Activity ([2]; hcc, 72 h): Non-toxic; inhibition [5]: Active; Activity [6]: Active; inhibition [7]: Active
23 | Nc1nc(OCc2cccc(Br)c2)c2nc[nH]c2n1 | 0.64 µM | 11.3 µM | –
24 | Nc1nc(OCc2cccc(Cl)c2Cl)c2nc[nH]c2n1 | > 50 µM | 13.3 µM | –
25 | COc1cc(COc2nc(N)nc3[nH]cnc23)ccc1OCc1ccccc1 | 11.1 µM | 11.2 µM | –
26 | Nc1nc(OCc2ccccc2Cl)c2nc[nH]c2n1 | 0.148 µM | 5.6 µM | –
27 | Nc1nc(OCC2CCCCC2)c2nc[nH]c2n1 | 5.69 µM | 29.6 µM | –
28 | Nc1nc(OCCCc2ccccc2)c2nc[nH]c2n1 | 3.63 µM | 35.6 µM | –
29 | Nc1nc(OCc2cccc(Cl)c2)c2nc[nH]c2n1 | 0.179 µM | 4 µM | –
30 | Nc1nc(OCc2cccc(F)c2)c2nc[nH]c2n1 | 34.5 µM | 3.3 µM | –
31 | Cc1ccc(COc2nc(N)nc3[nH]cnc23)cc1C | 0.951 µM | 5.3 µM | –
32 | CCOC(=O)Cn1cnc2c(OCc3cccc(Cl)c3Cl)nc(N)nc21 | > 50 µM | > 50 µM | –
33 | Nc1nc(SCc2ccccc2)c2[nH]cnc2n1 | 2.06 µM | 10.4 µM | –
34 | COC(=O)Cn1cnc2c(OCc3cccc(Cl)c3Cl)nc(N)nc21 | 0.829 µM | > 50 µM | –
35 | O=C1C=CC(=O)c2c(O)cccc21 | – | – | inhibition [7]: Active
36 | CCOC(=O)Cn1cnc2c(OCc3cccc(OC)c3)nc(N)nc21 | 21.7 µM | > 50 µM | –
37 | COCOc1cccc(COc2nc(N)nc3[nH]cnc23)c1 | 0.508 µM | 7.6 µM | –
38 | Nc1nc(OCc2ccc(Br)cc2)c2[nH]cnc2n1 | 0.256 µM | 4.8 µM | –
39 | CC(=O)NCc1ccc(COc2nc(N)nc3[nH]cnc23)cc1 | 0.125 µM | 5.3 µM | –
40 | CCOC(=O)CCCn1cnc2c(OCc3cccc(OC)c3)nc(N)nc21 | 19.1 µM | > 50 µM | –
